The subject of one series is complementary DNA. Nature of the series: Thermal denaturation (UV melting) of AON duplexes with complementary DNA. Type of series: binding. The conditions noted are these: 1 μM of each strand, medium salt buffer pH 7.5, average of at least three runs.
Another series relates to complementary RNA. Kind of series: Thermal denaturation (UV melting) of AON duplexes with complementary RNA. It is filed as binding. The conditions noted are these: 1 μM of each strand, medium salt buffer pH 7.5, average of at least three runs. How it is done: All 17 modified AONs have been purified as a single component on PAGE (20% polyacrylamide with 7 Molar urea), extracted with 0.3 M NaOAc and desalted with C-18 reverse phase cartridge to give AONs in >99% purity and correct mass have been obtained by MALDI-TOF mass spectroscopy for each one them (Table 1). Determination of the Tm of the AON/RNA hybrids was carried out in the following buffer: 57 mM Tris-HCl (pH 7.5), 57 mM KCl, 1 mM MgCl2. Absorbance was monitored at 260 nm in the temperature range from 20° C. to 90° C. using UV spectrophotometer equipped with Peltier temperature programmer with the heating rate of 1° C. per minute. Prior to measurements, the samples (1 μM of AON and 1 μM RNA mixture) were pre-annealed by heating to 90° C. for 5 min followed by slow cooling to 4° C. and 30 min equilibration at this temperature and are average of at least three independent runs.

Another series concerns the target E. coli RNase H1 (Escherichia coli, UniProt P0A7Y4). The conditions noted are these: AON/RNA duplex.
The nature of series [1]: Stability of 5′-32P-labeled AONs in human blood serum (PAGE autoradiography). It is filed as in vitro ADME. The conditions noted are these: human blood serum, 21° C. The protocol: FIG. 4. Autoradiograms of 20% denaturing PAGE showing degradation patterns of 5′-^32P-labeled AONs in human blood serum (Table 1 for all AON sequences). Inset A: AON 1 and LNA-modified AONs 2-5. Inset B: Carbocyclic-LNA-modified AONs 6-9. Inset C: Carbocyclic-ENA-modified AONs 10-13 and Inset D: aza-ENA-modified AONs 14-17. Time points are taken after 0, ½, 1 h, 2 h, 5 h, 7 h, 9 h, 12 h, for AONs 1-5 and 0 h, 6 h, 8 h, 12 h, 24 h, 36 h and 48 h of incubation for AONs 6-17 at 21° C. (see Experimental Section for details).
Modified sequences (Table 1), ^32P-labeled at 5′-ends, were digested in human blood serum at 21° C. as shown in the PAGE autoradiograms (Insets A, B, C and D in FIG. 4). In order to understand
AONs (6 μL) at 2 μM concentration (5′-end ^32P labeled with specific activity 80 000 cpm) were incubated in […] of human blood serum (male AB) at 21° C. (total reaction volume was 36 μL) and the experiments were repeated twice up to 48 h. Aliquots (3 μL) were taken at 0, 30 min, 1, 2, 5, 7, 8, 9, 12, 24, 36, 48 h and quenched with 7 μL of solution containing 8 M urea and 50 mM EDTA, resolved in 20% polyacrylamide denaturing (7 M urea) gel electrophoresis and visualized by autoradiography. […] Since no new prominent cleavage products were found toward the later time points, we considered those prominent stable initial fragments as 100% during the last time points (12-48 h).

From patent US8461124B2, “Five- and six-membered conformationally locked 2′,4′-carbocyclic ribo-thymidines for the treatment of infections and cancer” (priority 2007, dated 2013) come the findings set out here.

Chain of E. coli RNase H1 (P0A7Y4 whole entry): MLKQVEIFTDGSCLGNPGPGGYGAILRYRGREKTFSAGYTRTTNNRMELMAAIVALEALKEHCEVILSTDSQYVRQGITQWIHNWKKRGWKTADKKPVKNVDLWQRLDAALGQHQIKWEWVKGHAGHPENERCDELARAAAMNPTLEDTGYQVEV
Protocol for E. coli RNase H1: Autoradiograms of 20% denaturing PAGE, showing the cleavage kinetics of 5′-^32P-labeled target RNA by E. coli RNase H1 in the AONs 1-17 after 2, 5, 10, 15, 30 and 60 min of incubation. Conditions of cleavage reactions: RNA (0.8 μM) and AONs (4 μM) in buffer containing 20 nM Tris-HCL (pH 8.0), 20 mM KCL, 10 mM Mgcl2, and 0.1 mM DTT at 21° C.; 0.04 U of RNase H1. Inset A: LNA-T modified AONs 2-5 with native AON 1. Inset B: carbocyclic-LNA-T modified AONs 6-9. Inset C: carbocyclic-ENA-T modified AONs 10-13 with native AON 1. Inset D: aza-ENA-T modified AONs 14-17 with native AON 1. The graphs in Insets E, F, G, and H show the kinetics of RNase H1 mediated cleavage of the target RNA, the remaining fraction of target RNA is measured densitometrically and plotted as a function of time fitted to a single exponential decay function. Inset E: AON 1 with AONs 2-5. Inset F: for AON 1 with AONs 6-9. Inset G: AON 1 and AONs 10-13. Inset H: AON 1 and AONs 14-17.
The cleavage rates of RNase H digestion were determined by densitometric quantification of gels and subsequently by plotting the uncleaved RNA fraction as a function of time (Insets E-H in FIG. 6). The reaction rates were obtained by fitting the degradation curves to single-exponential decay functions.

With “3′-d(CTTCTTTTTTACTTC)-5′ (DNA, backbone not given here) [AON 1, native unmodified 15mer DNA antisense oligonucleotide]”, in the series with complementary DNA, the “Tm/° C. with DNA” value is 45 °C. In the series on complementary RNA, the “Tm/° C. with RNA” value turned out to be 44 °C. Further, the “RNase H cleavage pattern of the RNA compliment” value in the series with E. coli RNase H1 was “cleaved quite randomly with a slight preference after A-8 position”. Moreover, in series [1], the “time to full degradation” value is given as no more than 12 h.
